Measurements taken from patent US20250296940A1, “ANNULATED 2-AMINO-3-CYANO THIOPHENES AND DERIVATIVES FOR THE TREATMENT OF CANCER” (Boehringer Ingelheim Int'l GmbH Corp., priority 2021, published 2025).

Tests used:
CYP3A4 = biological target: T1, CYP3A4 (Homo sapiens, UniProt P08684); assay: Mechanism based inhibition of CYP3A4 assay (MBI 3A4); type: in vitro ADME; details: human liver microsomes, 25 uM compound; hydroxy-midazolam formation after 30 min preincubation relative to 0 min
T1 construct: assayed in human liver microsomes (0.02 mg/mL) with midazolam (15 μM) as a substrate; from tissue; host or cells: human liver microsomes
T1 sequence (P08684 whole entry): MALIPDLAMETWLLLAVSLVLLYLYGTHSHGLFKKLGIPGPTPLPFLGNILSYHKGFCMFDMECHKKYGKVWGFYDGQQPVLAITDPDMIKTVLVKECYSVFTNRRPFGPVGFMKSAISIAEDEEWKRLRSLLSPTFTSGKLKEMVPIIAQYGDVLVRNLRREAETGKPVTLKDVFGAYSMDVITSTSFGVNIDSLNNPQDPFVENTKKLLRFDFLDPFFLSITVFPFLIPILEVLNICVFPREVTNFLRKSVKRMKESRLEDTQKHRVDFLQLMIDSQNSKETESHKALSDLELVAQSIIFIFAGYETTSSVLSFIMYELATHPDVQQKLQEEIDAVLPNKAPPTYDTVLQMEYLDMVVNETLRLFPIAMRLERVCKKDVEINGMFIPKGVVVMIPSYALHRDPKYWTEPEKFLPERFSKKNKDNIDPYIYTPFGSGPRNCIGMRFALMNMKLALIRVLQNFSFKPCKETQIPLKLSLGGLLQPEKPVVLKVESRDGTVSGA
Protocol: The time dependent inhibition towards CYP3A4 is assayed in human liver microsomes (0.02 mg/mL) with midazolam (15 μM) as a substrate. The test compounds and water control (wells w/o test compound) are preincubated in presence of NADPH (1 mM) with human liver microsomes (0.2 mg/mL) at a concentration of 25 uM for 0 min and 30 min. After preincubation, the incubate is diluted 1:10 and the substrate midazolam is added for the main incubation (15 min). The main incubation is quenched with acetonitrile and the formation of hydroxy-midazolam is quantified via LC/MS-MS. The formation of hydroxy-midazolam from the 30 min preincubation relative to the formation from the 0 min preincubation is used as a readout. Values of less than 100% mean that the substrate midazolam is metabolized to a lower extent upon 30 min preincubation compared to 0 min preincubation. In general low effects upon 30 min preincubation are desired (corresponding to values close to 100%/not different to the values determined with water control).
(§1) Data obtained with the disclosed assay for a selection of compounds (I) according to the invention: […]

Caco-2 assay = type: in vitro ADME; details: human, 10 μM compound; for Papp A→B at 90 min, 10 μM: apical to basolateral, pH 7.4, read-out: Caco PappAB; for efflux ratio at 90 min, 10 μM: efflux ratio PappBA/PappAB, pH 7.4, read-out: Caco ER
Text: The assay provides information on the potential of a compound to pass the cell membrane, on the extent of oral absorption as well as on whether the compound is actively transported by uptake and/or efflux transporters. Permeability measurements across polarized, confluent Caco-2 cell monolayers grown on permeable filter supports (Corning, catalog #3391) are used. […] The receiver and donor compartments contain 0.25% bovine serum albumine (BSA) in assay buffer. Passive diffusion and/or active transport of compounds across the monolayer is measured in both apical to basolateral (a-b) and basolateral to apical (b-a) direction. a-b permeability (PappAB) represents drug absorption from the intestine into the blood and b-a permeability (PappBA) drug secretion from the blood back into the intestine via both passive permeability as well as active transport mechanisms mediated by efflux and uptake transporters that are expressed on the Caco-2 cells. After a pre-incubation of 25-30 min at 37° C., at predefined time points (0, 30, 60 and 90 min), samples were taken from the receiver and donor compartment, respectively. Concentrations of test compounds in samples were measured by HPLC/MS/MS, samples from the donor compartment were diluted 1:50 (v:v) with assay buffer, samples from receiver compartment were measured without dilution.
Apparent permeabilities in a-b (PappAB) and b-a (PappBA) directions are calculated according to the formula:
[formula] • Vrec [mL]: buffer volume in receiver compartment • Cdon [μmol/mL]: concentration of test compound in donor compartment at t=0 • ΔCrec: difference between concentrations of test compound in receiver compartment at start and end of incubation time • Δt: Incubation time • Vrec·ΔCrec/Δt [μmol/min]: Amount of compound transferred to receiver compartment per time • A [cm^2]: filter surface
Caco-2 efflux ratios (ER) are calculated as the ratio of PappBA/PappAB.
as §1

Row | SMILES | MBI 3A4 (CYP3A4) | Papp A→B at 90 min, 10 μM (Caco-2 assay) | efflux ratio at 90 min, 10 μM (Caco-2 assay)
1 | C[C@H](Oc1cc(N2C[C@H](C)N(C(=O)/C=C/CF)[C@@H](C)C2)nc(-c2noc3c2CCC[C@@]32CCCc3sc(N)c(C#N)c32)n1)[C@@H]1CCCN1C [Ib-1] |  | 0.8 ×10⁻⁶ cm/s | 28.6
2 | C=C(F)C(=O)N1[C@@H](C)CN(c2cc(O[C@@H](C)[C@@H]3CCCN3C)nc(-c3onc4c3CCC[C@@]43CCCc4sc(N)c(C#N)c43)n2)C[C@@H]1C [Ia-1] | 61% | 4.4 ×10⁻⁶ cm/s | 3.6
3 | C=CC(=O)N1[C@@H](C)CN(c2cc(O[C@@H](C)[C@@H]3CCCN3C)nc(-c3onc4c3CCC[C@@]43CCCc4sc(N)c(C#N)c43)n2)C[C@@H]1C [Ia-2] | 62% | 2.9 ×10⁻⁶ cm/s | 8.6
4 | C=CC(=O)N1CCN(c2cc(O[C@@H](C)[C@@H]3CCCN3C)nc(-c3noc4c3CCC[C@@]43CCCc4sc(N)c(C#N)c43)n2)CC12CC2 [Ib-2] |  |  | 18.2
5 | C=CC(=O)N1[C@@H](C)CN(c2cc(O[C@@H](C)[C@@H]3CCCN3C)nc(-c3noc4c3CCC[C@@]43CCCc4sc(N)c(C#N)c43)n2)C[C@@H]1C [Ib-3] | 65% | 6.3 ×10⁻⁶ cm/s | 3
6 | C=CC(=O)N1[C@@H](C)CN(c2cc(-c3onc4c3CCC[C@@]43CCCc4sc(N)c(C#N)c43)nc(O[C@@H](C)[C@@H]3CCCN3C)n2)C[C@@H]1C [Ia-4] |  | 1.3 ×10⁻⁶ cm/s | 30.7

Further lines, results first:

Row | MBI 3A4 (CYP3A4) | Papp A→B at 90 min, 10 μM (Caco-2 assay) | efflux ratio at 90 min, 10 μM (Caco-2 assay) | SMILES
7 | 64% | 9.2 ×10⁻⁶ cm/s | 1.7 | C=C(F)C(=O)N1[C@@H](C)CN(c2cc(-c3noc4c3CCC[C@@]43CCCc4sc(N)c(C#N)c43)nc(O[C@@H](C)[C@@H]3CCCN3C)n2)C[C@@H]1C [Ib-6]
8 | 68% | 2.4 ×10⁻⁶ cm/s | 7.5 | COC/C=C/C(=O)N1[C@@H](C)CN(c2cc(-c3noc4c3CCC[C@@]43CCCc4sc(N)c(C#N)c43)nc(O[C@@H](C)[C@@H]3CCCN3C)n2)C[C@@H]1C [Ib-9]
9 | 62% | 2.4 ×10⁻⁶ cm/s | 10.4 | C[C@H](Oc1nc(-c2noc3c2CCC[C@@]32CCCc3sc(N)c(C#N)c32)cc(N2C[C@H](C)N(C(=O)/C=C/CF)[C@@H](C)C2)n1)[C@@H]1CCCN1C [Ib-7]
10 | 78% | 3.1 ×10⁻⁶ cm/s | 12.3 | C=CC(=O)N1[C@@H](C)CN(c2cc(-c3noc4c3CCC[C@@]43CCCc4sc(N)c(C#N)c43)nc(O[C@@H](C)[C@@H]3CCCN3C)n2)C[C@@H]1C [Ib-4]
11 | 69% | 11 ×10⁻⁶ cm/s | 1.1 | C=C(F)C(=O)N1[C@@H](C)CN(c2cc(O[C@@H](C)[C@@H]3CCCN3C)nc(-c3noc4c3CCC[C@@]43CCCc4sc(N)c(C#N)c43)n2)C[C@@H]1C [Ib-5]
